Measurements reported in patent publication US12485096B2 (CHENLAND NUTRITIONALS, INC., priority 2020, dated 2025).

Columns and labels:
[1] = tested on: Caco-2 cells, HT-29 cells and Raji-B cells; assay: Cell uptake of curcumin in three-cell model, flow cytometry; conditions: curcumin 20 μg/mL, 4 hours; verapamil 300 μg/mL, sodium azide 1 mg/mL, ketoconazole 10 μg/mL
[2] = Dispersion in water (photographs, FIG. 1); format: physicochemical

- average value (intake of curcumin by cells, fluorescence) [1]: 19.4
- dispersion in water (in words) [2]: insoluble in water
SMILES: COc1cc(/C=C/C(=O)CC(=O)/C=C/c2ccc(O)c(OC)c2)ccc1O [Curcumin raw material, Curcumin]
